Reference: article PMC8035703, “Effect of Synchronous Versus Sequential Regimens on the Pharmacokinetics and Biodistribution of Regorafenib with Irradiation” (Pharmaceutics, 2021)

Legend:
Format in all cases: cell-based, human
Huh-7 cells [1] = experiment: Apoptosis assay (Annexin-V FITC / PI)
Text: Annexin-V FITC and propidium iodide (PI) (BD Bioscience Pharmingen (San Diego, CA, USA)) were used to identify apoptotic cells by FACScan. Cells that were positive for Annexin V and negative for PI were defined as early apoptotic cells. Cells that were positive for both Annexin V and PI were defined as late apoptotic cells.

HA22T cells = experiment: Colony formation assay
Procedure: HA22T cells kindly provided from professor Hu (Taipei Veterans General Hospital, Taiwan) were treated with trypsin to detach, counted and plated (400 per plate) into dishes measuring 60 mm, […] and allowed to grow for 10 days. Cells were stained, and colonies containing ≥ 50 cells were counted.

Huh-7 cells [2] = experiment: Cell cycle analysis (propidium iodide, flow cytometry)
Procedure: The cells were collected, fixed and stained with propidium iodide. Flow cytometry was performed, using a Beckman Coulter Elite Epics sorter. The sub-G1 phase was used to quantify dead cells in the apoptosis assays. Cells were released into DMSO or regorafenib at 5, 10 and 20 μM in the concurrent or sequential groups with different RT doses. Floating and adherent cells were harvested at various time points, stained with propidium iodide and analyzed by flow cytometry.

CNC(=O)c1cc(Oc2ccc(NC(=O)Nc3ccc(Cl)c(C(F)(F)F)c3)c(F)c2)ccn1 [regorafenib, Regorafenib]
Late apoptosis of Huh-7 cells (in words) (Huh-7 cells [1]; RT followed by regorafenib): enhanced the late apoptosis of Huh-7 cells | Apoptosis of Huh-7 cells (in words) (Huh-7 cells [1]; regorafenib concurrent with or following RT): caused Huh-7 cell apoptosis in a dose-dependent manner | Colony formation, regorafenib with RT vs regorafenib alone (in words) (HA22T cells; regorafenib 1, 10 and 20 μM, concurrent or sequential with RT): synergic effects to inhibit the colony formation | Colony formation of HA22T (in words) (HA22T cells; regorafenib 1 to 20 μM and RT (2 and 9 Gy)): colony formation of HA22T were decreased | Accumulation of sub-G1 Huh-7 cells (in words) (Huh-7 cells [2]; concurrent groups): correlated with the dose of regorafenib but was not correlated with RT or its absence | Accumulation of sub-G1 Huh-7 cells (in words) (Huh-7 cells [2]; sequential groups): correlated with the doses of regorafenib and RT
